Laboratory results taken from US20040077591A1, “Histone deacetylase inhibitors for the treatment of multiple sclerosis, amyotrophic lateral sclerosis and Alzheimer's Disease” (The Brigham and Women's Hospital, Inc., priority 2002, published 2004).
Marks after values point to notes of the source that are not given here.

What was measured:
[1] = test system: experimental autoimmune encephalomyelitis (EAE) in mice; experiment: MOG-induced EAE in mice, clinical disability scoring; type: in vivo, C57BL/6 female mice; details: for EAE clinical disability: TSA 7.5 mg/kg/dose/d i.p., apparent in the chronic (days 20-40) phase
Description: FIG. 1—Efficacy of HDAC inhibitor treatment in reducing the clinical manifestations of experimental autoimmune encephalomyelitis (EAE) in mice. Mean clinical scores reflect reduced clinical disability by TSA in the neurodegenerative phase of EAE (● TSA-treated; ◯ vehicle-treated) (*P<0.05 by Fisher's protected least significant difference (PLSD) test). The remission phase lasted from days 19 to 34 following disease induction in a first experiment, days 21 to 32 in a second experiment. Animals were scored for signs of disability using the following widely used scale: 1, limp tail or isolated weakness of gait without limp tail; 2, partial hind leg paralysis; 3, total hind leg or partial hind and front leg paralysis and/or urinary incontinence; 4, total hind leg and partial front leg paralysis; 5, moribund or dead animal (with minor modifications from Issazadeh et al. (1998)). The definitions used were: (1) mean peak remission: mean of maximal score reached during remission, and (2) mean % days of severity: mean % of days with scores ≧2.
Experimental autoimmune encephalomyelitis (EAE) is the most widely accepted animal model for multiple sclerosis. […] Medications that currently modify the disease course in humans also modify the disease course in the animal model. The inventor has used the C57BL/6J mice (female mice 6-8 weeks old from Jackson Laboratories) for the experiments, which involve the administration of myelin oligodendrocyte glycoprotein (MOG), a myelin antigen, that induces autoimmunity against the brain tissue. EAE can also be induced in laboratory mice and rats using other myelin antigens.
Efficacy of HDAC inhibitor treatment in reducing the clinical manifestations of experimental autoimmune encephalomyelitis (EAE) in mice. The inventor injected 6-8 week-old C57BL/6 female mice (Jackson Laboratories, Bar Harbor, Me.) subcutaneously with 150 μg myelin oligodendrocyte glycoprotein (MOG)35-55 peptide (Quality Controlled Biochemicals, Hopkinton, Mass.) in PBS and CFA containing 0.4 mg of Mycobacterium tuberculosis (H37Ra, Difco, Detroit, Mich.), and i.p. on days 1 and 3 with 200 ng Pertussis (List Biological, Campbell, Calif.). TSA (7.5 mg/kg/dose/d i.p.) (Biomol, Plymouth Meeting, Pa. and Wako, Richmond, Va.) in PBS (9):DMSO (1) vehicle was begun on day 4. Ten mice were given vehicle and 9 were given TSA in a first experiment, wherease a second experiment utilized 15 per group.

mouse model = details: cited from earlier work
ras transformed cells = details: cited from earlier work
caspases 3 and 9 = experiment: Western analysis of caspases in CNS tissue of EAE mice; type: in vivo
Description: FIGS. 7A-B—Densitometry of bands from western analysis of brain tissue proteins isolated from HDAC inhibitor-treated and vehicle-treated mice. […] Activated caspase 9 is decreased by oral sodium phenylbutyrate (SPB) and by intraperitoneal TSA. Both findings correlate with clinical improvement in these animal models.
Mechanisms of protection by HDAC inhibitors. (1) Decreased caspase activation leading to enhanced neuronal survival. […] Caspase 3 is known to be activated in rat EAE spinal cords (Ahmed et al., 2002), and correlates with retinal ganglion cell loss and optic neuritis-related disability (Meyer et al., 2001). Neuronal overexpression of the anti-caspase factor Bcl-2 ameliorates EAE (Offen et al., 2000). Caspase 3 also has the ability to modulate Bcl2 and activate upstream caspases triggered by Fas (Woo et al., 1999), an apoptotic pathway implicated in EAE (Sabelko et al., 1997). Finally, CNS activation of caspases has been implicated in the progression of Alzheimer's disease (AD) (Pompl et al., 2003). Thus, the inventor proposes that blockade of neuronal caspase activation is a mechanism by which HDAC inhibitors ameliorate neuronal death in these disorders (EAE, ALS and AD).

Q: For `CC(/C=C/C(=O)NO)=C\[C@@H](C)C(=O)c1ccc(N(C)C)cc1` [TSA, Trichostatin A], which “Mean % Days of Severity (mean % of days with scores ≧2)” value ([1]; TSA 7.5 mg/kg/dose/d i.p. from day 4, P = 0.0011 vs vehicle) is on record?
A: Its value is 33.9 ± 4.3** %.

Q: What about the “Days of Onset (Clinical EAE)” value ([1]; TSA 7.5 mg/kg/dose/d i.p. from day 4, two separate exp. pooled) of the same molecule?
A: Its value is 13 ± 0.5 days.

Q: What about the EAE clinical disability [1] of the same molecule?
A: Its EAE clinical disability is “decrease in EAE clinical disability”.

Q: What about the EAE clinical disability ([1]; listed as Trichostatin A) of the same molecule?
A: Its EAE clinical disability is “effective in reducing EAE in mice”.

Q: And the “Mean Peak Remission Phase (mean of maximal score reached during remission)” value ([1]; clinical score scale 1-5, TSA 7.5 mg/kg/dose/d i.p. from day 4, P = 0.0036 vs vehicle)?
A: Its value is 1.8 ± 0.1*.

Q: What about the immunosuppression (mouse model) of the same molecule?
A: The immunosuppression was “induces immunosuppression”.

Q: And the hyperacetylation (ras transformed cells)?
A: Its hyperacetylation is “induce hyperacetylation”.

Q: What about the “morphology of ras transformed cells” value (ras transformed cells) of the same molecule?
A: The value was “reversion of ras transformed cells to normal morphology”.

Q: And the “Activated caspase 9, densitometry of western bands, brain tissue” value (caspases 3 and 9; intraperitoneal TSA vs vehicle-treated mice)?
A: Its value is “decreased”.

Q: What about the “activation of caspases 3 and 9 in CNS tissue” value (caspases 3 and 9; intraperitoneal TSA, MS (EAE) mice, western analysis) of the same molecule?
A: Its value is “decreased activation of caspases 3 and 9”.
